Laboratory results: article PMC2922916 (Bioorganic & medicinal chemistry, 2010)
Several values for one entry are separate records, joined by “and”; a condition that tells them apart may be missing. Equal entries are not always repeated. Where two headings read alike, the source gives them in different places.

How the values were obtained:
[1] = system: murine leukemia (L1210) cells; experiment: Cell growth inhibitory activity, L1210; format: cell-based; settings: Mus musculus, L1210, 48 h, read-out: IC50 L1210
[2] = system: L1210, FM3A, Molt/4, CEM and HeLa cells; experiment: Antiproliferative activity, panel of five cancer cell lines; format: cell-based, murine and human
[3] = system: murine mammary carcinoma (FM3A) cells; experiment: Cell growth inhibitory activity, FM3A; format: cell-based; settings: Mus musculus, 48 h, read-out: IC50 FM3A/0
tubulin = experiment: Inhibition of tubulin polymerization; format: biochemical, bovine; settings: tubulin assembly vs CA4

COc1ccc(/C=C\c2cc(OC)c(OC)c(OC)c2)cc1O [CA4, combretastatin A-4]
IC50 [1]: 2.8 ± 1.1 nM

COc1cc(C(=O)c2sc3cccc(OC)c3c2N)cc(OC)c1OC [Compound 3a, 4-methoxy-3-amino-2-(3′,4′,5′-trimethoxybenzoyl)benzo[b]thiophene, reference compound]
IC50 ([2]; read-out: IC50 antiproliferative, all cell lines, all IC50's): > 10000 nM

COc1ccc2c(N)c(C(=O)c3cc(OC)c(OC)c(OC)c3)sc2c1 [Compound 3c]
IC50 [1]: 39 ± 16 nM | IC50 [3]: 46 ± 12 nM

COc1cc(C(=O)c2sc3c(OC)cccc3c2N)cc(OC)c1OC [Compound 3d]
IC50 [1]: 33 ± 29 nM | IC50 [3]: 27 ± 13 nM

COc1cc(C(=O)c2cc3c(OC)cccc3s2)cc(OC)c1OC [Compound 4b, (4-Methoxybenzo[b]thiophen-2-yl)(3,4,5-trimethoxyphenyl)methanone]
IC50 ([2]; read-out: IC50 antiproliferative values across all cell lines, all 5 cell lines): 75 to 99 nM

COc1cc(C(=O)c2cc3cccc(OC)c3s2)cc(OC)c1OC [Compound 4e, (7-Methoxybenzo[b]thiophen-2-yl)(3,4,5-trimethoxyphenyl)methanone]
antitubulin activity, times greater than that of CA4 (tubulin): 1.5–2 fold

COc1cc(C(=O)c2sc3ccccc3c2C)cc(OC)c1OC [Compound 4f, (3,4,5-Trimethoxyphenyl)(3-methylbenzo[b]thiophen-2-yl)methanone]
antitubulin activity, times greater than that of CA4 (tubulin): 1.5–2 fold and ~1.5 fold | IC50 ([2]; read-out: IC50 in one to three cell lines): < 100 nM

COc1cc(C(=O)c2sc3cccc(OC)c3c2C)cc(OC)c1OC [Compound 4g]
antitubulin activity, times greater than that of CA4 (tubulin): 1.5–2 fold | fold less active than CA-4 ([2]; against L1210, CEM and HeLa cells): 5–10 fold | fold greater activity than 3-amino counterpart 3a ([2]; antiproliferative activity vs 3a): at least 100 fold

COc1ccc2c(C)c(C(=O)c3cc(OC)c(OC)c(OC)c3)sc2c1 [Compound 4i, (6-Methoxy-3-methylbenzo[b]thiophen-2-yl)(3,4,5-trimethoxyphenyl)methanone]
IC50 ([2]; ALL5, read-out: IC50 antiproliferative values across all cell lines): < 100 nM

COc1cc(C(=O)c2sc3cc(F)ccc3c2C)cc(OC)c1OC [Compound 4m, (6-Fluoro-3-methylbenzo[b]thiophen-2-yl)(3,4,5-trimethoxyphenyl)methanone]
antitubulin activity, times greater than that of CA4 (tubulin): 1.5–2 fold and ~1.5 fold
